# Experimental data published in patent US12655116B2, “Substituted isophthalic acid diamides” (Bayer Aktiengesellschaft, priority 2020, dated 2026).
# Columns and labels:
# AVEFA = assay: Pre-emergence herbicidal action against AVEFA; format: in vivo, Avena fatua; details: 80 g/ha, pre-emergence
# Summary of the method: (§1)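 Pre-emergence soil-surface spray of formulated compound (WP or EC; 600 to 800 l/ha; 0.2% wetting agent) over seeds sown in sandy loam. After 3 weeks under greenhouse conditions, damage is estimated visually in percent against untreated plants.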
# ALOMY [1] = assay: Pre-emergence herbicidal action against ALOMY; format: in vivo, Alopecurus myosuroides; details: 80 g/ha, pre-emergence, scored visually after 3 weeks vs untreated controls (100% = plants have died, 0% = like control plants)
# Summary of the method: as §1
# VERPE [2] = assay: Pre-emergence herbicidal action against VERPE; format: in vivo, Veronica persica; details: dosage 80 g/ha
# Summary of the method: as §1
# ABUTH [3] = assay: Pre-emergence herbicidal action against ABUTH; format: in vivo, Abutilon theophrasti
# Summary of the method: as §1
# ECHCG [4] = assay: Pre-emergence herbicidal action against ECHCG; format: in vivo, Echinochloa crus-galli; details: 80 g/ha
# Summary of the method: as §1
# POLCO = assay: Pre-emergence herbicidal action against POLCO; format: in vivo, Polygonum convolvulus
# Summary of the method: as §1
# ECHCG [5] = assay: Post-emergence herbicidal action against ECHCG; format: in vivo, Echinochloa crus-galli
# Summary of the method: (§2)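 Spray, one-leaf stage: WP or EC compound in water, 600–800 l/ha, 0.2% wetting agent. Plants held about 3 weeks in the greenhouse, then visually rated in percent of kill compared with untreated controls.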
# SETVI [6] = assay: Pre-emergence herbicidal action against SETVI; format: in vivo, Setaria viridis; details: dosage 80 g/ha
# Summary of the method: as §1
# MATIN [7] = assay: Pre-emergence herbicidal action against MATIN; format: in vivo, Matricaria inodora
# Summary of the method: as §1
# PHBPU [8] = assay: Post-emergence herbicidal action against PHBPU; format: in vivo, Pharbitis purpurea
# Summary of the method: as §2
# DIGSA [9] = assay: Post-emergence herbicidal action against DIGSA; format: in vivo, Digitaria sanguinalis
# Summary of the method: as §2
# DIGSA [10] = assay: Pre-emergence herbicidal action against DIGSA; format: in vivo, Digitaria sanguinalis
# Summary of the method: as §1
# MATIN [11] = assay: Post-emergence herbicidal action against MATIN; format: in vivo, Matricaria inodora
# Summary of the method: as §2
# AMARE [12] = assay: Post-emergence herbicidal action against AMARE; format: in vivo, Amaranthus retroflexus; details: 20 g/ha, visual assessment about 3 weeks after treatment, 100% = plants have died, 0% = like control plants
# Summary of the method: as §2
# VIOTR = assay: Pre-emergence herbicidal action against VIOTR; format: in vivo, Viola tricolor
# Summary of the method: as §1
# ALOMY [13] = assay: Post-emergence herbicidal action against ALOMY; format: in vivo, Alopecurus myosuroides; details: dosage 20 g/ha, visual assessment about 3 weeks after treatment vs untreated controls
# Summary of the method: as §2
# SETVI [14] = assay: Post-emergence herbicidal action against SETVI; format: in vivo, Setaria viridis
# Summary of the method: as §2
# AMARE [15] = assay: Pre-emergence herbicidal action against AMARE; format: in vivo, Amaranthus retroflexus
# Summary of the method: as §1
# PHBPU [16] = assay: Pre-emergence herbicidal action against PHBPU; format: in vivo, Pharbitis purpurea; details: dosage 80 g/ha
# Summary of the method: as §1
# VERPE [17] = assay: Post-emergence herbicidal action against VERPE; format: in vivo, Veronica persica; details: 20 g/ha
# Summary of the method: as §2
# ABUTH [18] = assay: Post-emergence herbicidal action against ABUTH; format: in vivo, Abutilon theophrasti; details: visual assessment about 3 weeks after treatment vs untreated controls
# Summary of the method: as §2
# [19] = Tripleurospermum inodorum, 504 h, dosage 20 g/ha
# [20] = 80 g/ha, scored visually after 3 weeks vs untreated controls (100% = plants have died, 0% = like control plants)
# [21] = 20 g/ha, scored visually after 3 weeks vs untreated controls, 100% = plants have died, 0% = like control plants
smiles,measurement,setting,value
Cn1nnnc1NC(=O)c1ccc(C(F)F)c(C(=O)NCC(F)(F)F)c1Br [Example 1-229],pest or weed control at 80 g/ha,"AVEFA; Avena fatua, 504 h",80%
same,pest or weed control at 80 g/ha,"ALOMY [1]; Alopecurus myosuroides, 504 h",90%
same,pest or weed control at 80 g/ha,"VERPE [2]; Veronica persica, 504 h",100%
same,pest or weed control at 80 g/ha,"ABUTH [3]; Abutilon theophrasti, 504 h, 80 g/ha, scored visually after 3 weeks vs untreated controls (100% = plants have died, 0% = like control plants)",100%
same,pest or weed control at 20 g/ha,"ABUTH [3]; Abutilon theophrasti, 504 h, dosage 20 g/ha, scored visually after 3 weeks vs untreated controls, 100% = plants have died, 0% = like control plants, read-out: Pre-emergence action against ABUTH (herbicidal activity in percent)",90%
same,pest or weed control at 80 g/ha,"ECHCG [4]; Echinochloa crus-galli, 504 h",80%
same,pest or weed control at 80 g/ha,"POLCO; Fallopia convolvulus, 504 h, dosage 80 g/ha",80%
same,pest or weed control at 5 g/ha,"ECHCG [5]; Echinochloa crus-galli, 504 h, dosage 5 g/ha",90%
same,pest or weed control at 20 g/ha,"ECHCG [5]; Echinochloa crus-galli, 504 h, dosage 20 g/ha",90%
same,pest or weed control at 80 g/ha,"SETVI [6]; Setaria viridis, 504 h",100%
same,pest or weed control at 20 g/ha,MATIN [7]; [19],100%
same,pest or weed control at 80 g/ha,"MATIN [7]; Tripleurospermum inodorum, 504 h, dosage 80 g/ha",100%
same,pest or weed control at 20 g/ha,"PHBPU [8]; Ipomoea purpurea, 504 h, dosage 20 g/ha",80%
same,pest or weed control at 5 g/ha,"DIGSA [9]; Digitaria sanguinalis, 504 h, 5 g/ha",90%
same,pest or weed control at 20 g/ha,"DIGSA [9]; Digitaria sanguinalis, 504 h, 20 g/ha",90%
same,pest or weed control at 20 g/ha,"DIGSA [10]; Digitaria sanguinalis, 504 h, dosage 20 g/ha",100%
same,pest or weed control at 80 g/ha,"DIGSA [10]; Digitaria sanguinalis, 504 h, dosage 80 g/ha",100%
same,pest or weed control at 20 g/ha,MATIN [11]; [19],80%
same,pest or weed control at 20 g/ha,"AMARE [12]; Amaranthus retroflexus, 504 h",90%
same,pest or weed control at 80 g/ha,"VIOTR; Viola tricolor, 504 h, dosage 80 g/ha",100%
same,pest or weed control at 20 g/ha,"ALOMY [13]; Alopecurus myosuroides, 504 h",80%
same,pest or weed control at 5 g/ha,"SETVI [14]; Setaria viridis, 504 h, dosage 5 g/ha",80%
same,pest or weed control at 20 g/ha,"SETVI [14]; Setaria viridis, 504 h, dosage 20 g/ha",90%
same,pest or weed control at 20 g/ha,"AMARE [15]; Amaranthus retroflexus, 504 h, 20 g/ha, scored visually after 3 weeks vs untreated controls, 100% = plants have died, 0% = like control plants",100%
same,pest or weed control at 80 g/ha,"AMARE [15]; Amaranthus retroflexus, 504 h, 80 g/ha, scored visually after 3 weeks vs untreated controls, 100% = plants have died, 0% = like control plants",100%
same,pest or weed control at 80 g/ha,"PHBPU [16]; Ipomoea purpurea, 504 h",90%
CCn1nnnc1NC(=O)c1ccc(C(F)(F)F)c(C(=O)NC2CCC2)c1Cl [Example 2-146],Pre-emergence action against ALOMY (herbicidal activity),ALOMY [1],80%
same,Pre-emergence action against VERPE in %,VERPE [2],80%
same,Pre-emergence action against ABUTH (herbicidal activity),ABUTH [3]; [20],90%
same,Pre-emergence action against POLCO in %,POLCO; dosage 20 g/ha,80%
same,Pre-emergence action against POLCO in %,POLCO; dosage 80 g/ha,80%
same,Post-emergence action against VERPE in %,VERPE [17],80%
same,Pre-emergence action against SETVI in %,SETVI [6],100%
same,Pre-emergence action against MATIN in %,MATIN [7]; dosage 20 g/ha,100%
same,Pre-emergence action against MATIN in %,MATIN [7]; dosage 80 g/ha,100%
same,Post-emergence action against PHBPU in %,PHBPU [8]; dosage 5 g/ha,80%
same,Post-emergence action against PHBPU in %,PHBPU [8]; dosage 20 g/ha,90%
same,Pre-emergence action against DIGSA in %,DIGSA [10]; dosage 80 g/ha,100%
same,Post-emergence action against MATIN in %,MATIN [11]; dosage 5 g/ha,80%
same,Post-emergence action against MATIN in %,MATIN [11]; dosage 20 g/ha,90%
same,Post-emergence action at 20 g/ha against AMARE in %,AMARE [12],80%
same,Pre-emergence action against VIOTR in %,VIOTR; dosage 20 g/ha,100%
same,Pre-emergence action against VIOTR in %,VIOTR; dosage 80 g/ha,100%
same,Post-emergence action against ABUTH in %,ABUTH [18]; dosage 20 g/ha,80%
same,Pre-emergence action against AMARE in %,AMARE [15]; [21],100%
same,Pre-emergence action against AMARE in %,AMARE [15]; [20],100%
same,Pre-emergence action against PHBPU in %,PHBPU [16],90%
CCn1nnnc1NC(=O)c1ccc(C(F)F)c(C(=O)NCC(F)F)c1C [Example 2-49],Pre-emergence action against AVEFA in %,AVEFA,80%
same,Pre-emergence action against ALOMY (herbicidal activity),ALOMY [1],90%
same,Pre-emergence action against VERPE in %,VERPE [2],100%
same,Pre-emergence action against ABUTH (herbicidal activity),ABUTH [3]; [20],100%
same,Pre-emergence action against ABUTH (herbicidal activity in percent),"ABUTH [3]; dosage 20 g/ha, scored visually after 3 weeks vs untreated controls, 100% = plants have died, 0% = like control plants",100%
same,Pre-emergence action against ECHCG in %,ECHCG [4],90%
same,Pre-emergence action against POLCO in %,POLCO; dosage 80 g/ha,90%
same,Post-emergence action against ECHCG in %,ECHCG [5]; dosage 20 g/ha,90%
same,Pre-emergence action against SETVI in %,SETVI [6],100%
same,Pre-emergence action against MATIN in %,MATIN [7]; dosage 20 g/ha,100%
same,Pre-emergence action against MATIN in %,MATIN [7]; dosage 80 g/ha,100%
same,Post-emergence action against PHBPU in %,PHBPU [8]; dosage 5 g/ha,80%
same,Post-emergence action against PHBPU in %,PHBPU [8]; dosage 20 g/ha,90%
same,Post-emergence action against DIGSA in %,DIGSA [9]; 5 g/ha,90%
same,Post-emergence action against DIGSA,DIGSA [9]; 20 g/ha,90%
same,Pre-emergence action against DIGSA in %,DIGSA [10]; dosage 20 g/ha,100%
same,Pre-emergence action against DIGSA in %,DIGSA [10]; dosage 80 g/ha,100%
same,Post-emergence action against MATIN in %,MATIN [11]; dosage 5 g/ha,80%
same,Post-emergence action against MATIN in %,MATIN [11]; dosage 20 g/ha,80%
same,Post-emergence action at 20 g/ha against AMARE in %,AMARE [12],100%
same,Pre-emergence action against VIOTR in %,VIOTR; dosage 20 g/ha,90%
same,Pre-emergence action against VIOTR in %,VIOTR; dosage 80 g/ha,100%
same,Post-emergence action against ABUTH in %,ABUTH [18]; dosage 5 g/ha,90%
same,Post-emergence action against ABUTH in %,ABUTH [18]; dosage 20 g/ha,90%
same,Post-emergence action against ALOMY in %,ALOMY [13],80%
same,Post-emergence action against SETVI in %,SETVI [14]; dosage 20 g/ha,90%
same,Pre-emergence action against AMARE in %,AMARE [15]; [21],100%
same,Pre-emergence action against AMARE in %,AMARE [15]; [20],100%
same,Pre-emergence action against PHBPU in %,PHBPU [16],80%
